Laboratory results: patent publication US20120270237A9, “METHODS FOR THE IDENTIFICATION OF KINASE INTERACTING MOLECULES AND FOR THE PURIFICATION OF KINASE PROTEINS” (Cellzone AG, priority 2009, published 2012)

Tests used:
GCK = target: T1, GCK (Homo sapiens, UniProt Q12851); assay: Kinobeads competition binding, HL60 cell lysate; parameters: endogenous in cells; details: 10 μM free compound
T1 sequence (Q12851 1-820): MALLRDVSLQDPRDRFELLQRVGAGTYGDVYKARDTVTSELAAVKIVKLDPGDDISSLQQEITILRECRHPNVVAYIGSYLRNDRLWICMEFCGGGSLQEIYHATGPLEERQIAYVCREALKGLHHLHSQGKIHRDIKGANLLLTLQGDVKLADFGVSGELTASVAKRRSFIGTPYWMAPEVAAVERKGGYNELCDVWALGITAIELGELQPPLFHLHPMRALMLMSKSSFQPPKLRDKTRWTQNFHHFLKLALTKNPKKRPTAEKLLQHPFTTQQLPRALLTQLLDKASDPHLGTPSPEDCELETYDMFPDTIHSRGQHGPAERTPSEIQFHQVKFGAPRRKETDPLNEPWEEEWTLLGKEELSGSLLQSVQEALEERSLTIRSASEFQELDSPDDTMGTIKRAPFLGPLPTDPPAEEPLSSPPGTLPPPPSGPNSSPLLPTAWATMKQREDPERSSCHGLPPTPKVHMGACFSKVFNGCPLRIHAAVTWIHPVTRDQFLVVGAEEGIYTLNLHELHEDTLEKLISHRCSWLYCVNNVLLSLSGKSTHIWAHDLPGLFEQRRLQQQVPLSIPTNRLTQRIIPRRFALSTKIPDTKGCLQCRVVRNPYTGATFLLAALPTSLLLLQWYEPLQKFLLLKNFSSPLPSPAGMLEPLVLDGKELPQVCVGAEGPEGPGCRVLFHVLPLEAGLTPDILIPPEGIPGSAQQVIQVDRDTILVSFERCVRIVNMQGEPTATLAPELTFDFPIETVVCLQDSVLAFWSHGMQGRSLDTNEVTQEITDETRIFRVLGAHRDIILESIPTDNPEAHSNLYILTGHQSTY
In short: (§1)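 Free compound 10 μM → HL60 lysate; affinity matrix with same compound immobilized, 2 h 4 °C; SDS elution, SDS-PAGE, in-gel trypsin; iTRAQ 114/117 labels vs 0.5% DMSO control; nano-LC-MS/MS, reporter-ion quantitation.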

PAK4 = PAK4 (Homo sapiens, UniProt O96013); assay: Kinobeads competition binding, HL60 cell lysate; parameters: endogenous in cells; details: 10 μM free compound
In short: as §1

PAK4, sequence (O96013 whole entry): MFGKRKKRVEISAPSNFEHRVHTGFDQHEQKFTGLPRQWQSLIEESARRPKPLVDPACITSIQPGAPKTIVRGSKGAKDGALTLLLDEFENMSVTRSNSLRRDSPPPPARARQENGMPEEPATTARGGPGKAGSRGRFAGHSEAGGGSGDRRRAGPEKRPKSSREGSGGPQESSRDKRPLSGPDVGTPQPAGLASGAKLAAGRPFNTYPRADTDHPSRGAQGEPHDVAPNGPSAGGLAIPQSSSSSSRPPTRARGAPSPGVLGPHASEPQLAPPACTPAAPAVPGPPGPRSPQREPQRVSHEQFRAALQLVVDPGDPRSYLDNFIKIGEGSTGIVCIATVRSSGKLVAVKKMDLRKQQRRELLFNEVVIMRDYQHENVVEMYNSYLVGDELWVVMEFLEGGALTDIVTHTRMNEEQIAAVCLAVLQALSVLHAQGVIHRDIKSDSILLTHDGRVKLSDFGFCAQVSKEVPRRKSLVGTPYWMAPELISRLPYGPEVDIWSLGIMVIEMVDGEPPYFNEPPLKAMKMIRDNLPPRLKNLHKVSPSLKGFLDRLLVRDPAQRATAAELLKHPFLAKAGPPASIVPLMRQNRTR

inhibition at 10 µM (GCK): 96.5%
inhibition at 10 µM (PAK4): 97.5%
SMILES: CS(=O)(=O)Nc1ccccc1Nc1nc(Nc2cccc(OCCN)c2)ncc1Cl [CZC31326, N-(2-(2-(3-(2-aminoethoxy)phenylamino)-5-chloropyrimidin-4-ylamino)phenyl)methanesulfonamide]
